Source: ChEMBL document CHEMBL3045002, “3,4-Dihydropyrimidin-2(1H)-one derivatives: Organocatalysed microwave assisted synthesis and evaluation of their antioxidant activity” (Med Chem Res, 2012)
Values after ≈ are worked out from the molar mass of the structure shown.

How the values were obtained:
Type in all cases: functional
[1] = Antioxidant activity in phosphate buffer at pH 6.6 assessed as reducing power measuring conversion of potassium ferricyanide to ferrous form after 10 min by spectrophotometry
[2] = Antioxidant activity assessed as Fe2+ chelating activity after 10 min by spectrophotometry
[3] = Antioxidant activity assessed as DPPH scavenging activity after 2 hr by spectrophotometry

Row | Structure (SMILES) | EC50 [1] | EC50 [2] | IC50 [3]
1 | CCOC(=O)C1=C(C)NC(=O)NC1c1ccc(O)cc1 (stereo not drawn) | 61.4 µg/mL (≈ 222 µM) | 0.89 µg/mL (≈ 3.22 µM) | 2.71 µg/mL (≈ 9.81 µM)
2 | COC(=O)C1=C(C)NC(=O)NC1c1ccccc1 (stereo not drawn) | 97.56 µg/mL (≈ 396 µM) | 2.23 µg/mL (≈ 9.06 µM) | 28.43 µg/mL (≈ 115 µM)
3 | Oc1cc(O)c2c(c1)OC(c1ccc(O)c(O)c1)C(O)C2 (stereo not drawn) [CATECHIN] | 10 µg/mL (≈ 34.5 µM) |  | 2.12 µg/mL (≈ 7.3 µM)
4 | CCOC(=O)C1=C(C)NC(=O)NC1c1ccc(O)c(OC)c1 (stereo not drawn) | 49.38 µg/mL (≈ 161 µM) | 0.88 µg/mL (≈ 2.87 µM) | 3.65 µg/mL (≈ 11.9 µM)
5 | CCOC(=O)C1=C(C)NC(=O)NC1c1ccccc1 (stereo not drawn) | 158.9 µg/mL (≈ 610 µM) | 1.04 µg/mL (≈ 4 µM) | 25.04 µg/mL (≈ 96.2 µM)
6 | CCOC(=O)C1=C(C)NC(=O)NC1c1cccc([N+](=O)[O-])c1 (stereo not drawn) | 339.06 µg/mL (≈ 1110 µM) | 1.16 µg/mL (≈ 3.8 µM) | 27.73 µg/mL (≈ 90.8 µM)
7 | COC(=O)C1=C(C)NC(=O)NC1c1ccc(OC)cc1 (stereo not drawn) | 206 µg/mL (≈ 746 µM) | 1.92 µg/mL (≈ 6.95 µM) | 31.69 µg/mL (≈ 115 µM)
8 | COC(=O)C1=C(C)NC(=O)NC1c1cccc([N+](=O)[O-])c1 (stereo not drawn) | 126.35 µg/mL (≈ 434 µM) | 1.6 µg/mL (≈ 5.49 µM) | 27.08 µg/mL (≈ 93 µM)
9 | COC(=O)C1=C(C)NC(=O)NC1c1ccc([N+](=O)[O-])cc1 (stereo not drawn) | 170.02 µg/mL (≈ 584 µM) | 1.71 µg/mL (≈ 5.87 µM) | 27.78 µg/mL (≈ 95.4 µM)
10 | CCOC(=O)C1=C(C)NC(=O)NC1c1ccc(OC)cc1 (stereo not drawn) | 171.12 µg/mL (≈ 589 µM) | 1.55 µg/mL (≈ 5.34 µM) | 48.45 µg/mL (≈ 167 µM)
11 | CCOC(=O)C1=C(C)NC(=O)NC1c1ccc([N+](=O)[O-])cc1 (stereo not drawn) | 238.09 µg/mL (≈ 780 µM) | 1.86 µg/mL (≈ 6.09 µM) | 33.29 µg/mL (≈ 109 µM)
12 | O=C(O)CC(O)(CC(=O)O)C(=O)O [CITRIC ACID] |  | 0.074 µg/mL (≈ 0.385 µM) | 
13 | Cc1cc(C(C)(C)C)c(O)c(C(C)(C)C)c1 [BUTYLATED HYDROXYTOLUENE] | 20 µg/mL (≈ 90.8 µM) |  | 2.18 µg/mL (≈ 9.89 µM)
14 | COC(=O)C1=C(C)NC(=O)NC1c1ccc(O)cc1 (stereo not drawn) | 67 µg/mL (≈ 255 µM) | 0.79 µg/mL (≈ 3.01 µM) | 3.14 µg/mL (≈ 12 µM)
15 | COC(=O)C1=C(C)NC(=O)NC1c1ccc(O)c(OC)c1 (stereo not drawn) | 57.14 µg/mL (≈ 195 µM) | 0.9 µg/mL (≈ 3.08 µM) | 5.02 µg/mL (≈ 17.2 µM)
16 | O=C(O)c1cc(O)c(O)c(O)c1 [GALLIC ACID] | 5.25 µg/mL (≈ 30.9 µM) |  | 2.06 µg/mL (≈ 12.1 µM)
